Experimental data reported in article PMC9583322, “Vicinal Diaryl-Substituted Isoxazole and Pyrazole Derivatives with In Vitro Growth Inhibitory and In Vivo Antitumor Activity” (ACS Omega, 2022).

Assays:
CAKI-1 = experiment: NCI-60 single-dose screen; assay type: cell-based; settings: Homo sapiens, CAKI-1, Renal Cancer, read-out: % Growth Inhibition (GI%)
Procedure: (§1) Moreover, in vitro single-dose anticancer screening of 11 and 85 at 10 μM was performed utilizing the stable panel of 60 cell lines comprising 9 different cancer types at the National Cancer Institute (NCI) under the Developmental Therapeutics Program (Table S1).[31]

COLO 205 = experiment: NCI-60 single-dose screen; assay type: cell-based; settings: Homo sapiens, COLO 205, Colon Cancer, read-out: % Growth Inhibition (GI%)
Procedure: as §1

EKVX = experiment: NCI-60 single-dose screen; assay type: cell-based; settings: Homo sapiens, Non-Small Cell Lung Cancer, read-out: % Growth Inhibition (GI%)
Procedure: as §1

HOP-62 = experiment: NCI-60 single-dose screen; assay type: cell-based; settings: Homo sapiens, HOP-62, Non-Small Cell Lung Cancer, read-out: % Growth Inhibition (GI%)
Procedure: as §1

HS 578T = experiment: NCI-60 single-dose screen; assay type: cell-based; settings: Homo sapiens, Breast Cancer, read-out: % Growth Inhibition (GI%)
Procedure: as §1

KM12 = experiment: NCI-60 single-dose screen; assay type: cell-based; settings: Homo sapiens, KM12, Colon Cancer, read-out: % Growth Inhibition (GI%)
Procedure: as §1

LOX-IMVI = experiment: NCI-60 single-dose screen; assay type: cell-based; settings: Homo sapiens, Melanoma, read-out: % Growth Inhibition (GI%)
Procedure: as §1

M14 = experiment: NCI-60 single-dose screen; assay type: cell-based; settings: Homo sapiens, M14, Melanoma, read-out: % Growth Inhibition (GI%)
Procedure: as §1

MCF7 = experiment: NCI-60 single-dose screen; assay type: cell-based; settings: Homo sapiens, MCF7, Breast Cancer, read-out: % Growth Inhibition (GI%)
Procedure: as §1

MDA-MB-231 = experiment: NCI-60 single-dose screen; assay type: cell-based; settings: Homo sapiens, MDA-MB-231, Breast Cancer, read-out: % Growth Inhibition (GI%)
Procedure: as §1

NCI-H23 = experiment: NCI-60 single-dose screen; assay type: cell-based; settings: Homo sapiens, NCI-H23, Non-Small Cell Lung Cancer, read-out: % Growth Inhibition (GI%)
Procedure: as §1

NCI-H522 = experiment: NCI-60 single-dose screen; assay type: cell-based; settings: Homo sapiens, NCI-H522, Non-Small Cell Lung Cancer, read-out: % Growth Inhibition (GI%)
Procedure: as §1

OVCAR-4 = experiment: NCI-60 single-dose screen; assay type: cell-based; settings: Homo sapiens, OVCAR-4, Ovarian Cancer, read-out: % Growth Inhibition (GI%)
Procedure: as §1

SF-295 = experiment: NCI-60 single-dose screen; assay type: cell-based; settings: Homo sapiens, SF-295, CNS Cancer, read-out: % Growth Inhibition (GI%)
Procedure: as §1

SNB-19 = experiment: NCI-60 single-dose screen; assay type: cell-based; settings: Homo sapiens, SNB-19, CNS Cancer, read-out: % Growth Inhibition (GI%)
Procedure: as §1

UO-31 = experiment: NCI-60 single-dose screen; assay type: cell-based; settings: Homo sapiens, UO-31, Renal Cancer, read-out: % Growth Inhibition (GI%)
Procedure: as §1

[1] = Metabolic stability in human microsomes; assay type: in vitro ADME; settings: after 45 min incubation
Procedure: (§2) All chemicals were purchased from different suppliers such as Sigma-Aldrich Chemicals (Sigma-Aldrich Corp., St. Louis, MO), Merck Chemicals (Merck KGaA, Darmstadt, Germany), and ABCR (abcr GmbH, Karlsruhe, Germany). THF was dried from benzophenone-sodium. ^1H and ^13C NMR spectra were recorded in CDCl3 or DMSO-d6 on a Varian Mercury 400 MHz spectrometer using tetramethylsilane as the internal standard. Coupling constants were reported as Hertz and all chemical shifts were recorded as δ (ppm). High-resolution mass spectra data (HRMS) were collected using Waters LCT Premier XE Mass Spectrometer operating in ESI(+) or ESI(−) method, also coupled to an AQUITY Ultra Performance Liquid Chromatography system (Waters Corporation) using a UV detector monitoring at 254 nm. Purity for all final compounds was >95%, according to the UPLC-MS method using a water/MeCN solvent gradient containing 0.1% formic acid (1%/90%); flow rate: 0.3 mL/min, column: Aquity BEH C18 column (2.1 × 100 mm^2, 1.7 mm). All microwave irradiation reactions were carried out in a Biotage Initiator + microwave apparatus with Biotage sealed microwave vials. […] Melting points of the compounds were determined using the SMP50 automated melting point apparatus (Stuart, Staffordshire, ST15 OSA, U.K.). […]

logD7.4 = assay type: physicochemical; settings: pH 7.4
Procedure: as §2

[2] = Solubility at the physiological pH; assay type: physicochemical
Procedure: as §2

plasma protein = experiment: Plasma protein binding; assay type: in vitro ADME
Procedure: as §2

CYP2C9 = CYP2C9 (Homo sapiens, UniProt P11712); experiment: CYP inhibition; assay type: in vitro ADME; settings: read-out: Inhibition of human CYP 2C9
Chain of CYP2C9 (P11712 whole entry): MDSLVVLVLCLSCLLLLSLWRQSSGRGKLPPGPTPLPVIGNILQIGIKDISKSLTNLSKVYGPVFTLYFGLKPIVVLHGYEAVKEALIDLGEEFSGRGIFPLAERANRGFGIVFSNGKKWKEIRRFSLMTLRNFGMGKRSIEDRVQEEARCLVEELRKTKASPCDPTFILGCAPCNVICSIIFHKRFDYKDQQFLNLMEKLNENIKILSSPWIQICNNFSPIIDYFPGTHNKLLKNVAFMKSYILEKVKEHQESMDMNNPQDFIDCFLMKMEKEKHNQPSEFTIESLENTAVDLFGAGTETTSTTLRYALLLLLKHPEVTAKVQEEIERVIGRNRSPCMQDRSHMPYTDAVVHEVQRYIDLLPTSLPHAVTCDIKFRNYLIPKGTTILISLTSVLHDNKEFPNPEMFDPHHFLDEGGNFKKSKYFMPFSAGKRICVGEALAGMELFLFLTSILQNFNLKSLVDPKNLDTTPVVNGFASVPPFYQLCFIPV
Procedure: (§3) All chemicals were purchased from different suppliers such as Sigma-Aldrich Chemicals (Sigma-Aldrich Corp., St. Louis, MO), Merck Chemicals (Merck KGaA, Darmstadt, Germany), and ABCR (abcr GmbH, Karlsruhe, Germany). THF was dried from benzophenone-sodium. ^1H and ^13C NMR spectra were recorded in CDCl3 or DMSO-d6 on a Varian Mercury 400 MHz spectrometer using tetramethylsilane as the internal standard. Coupling constants were reported as Hertz and all chemical shifts were recorded as δ (ppm). High-resolution mass spectra data (HRMS) were collected using Waters LCT Premier XE Mass Spectrometer operating in ESI(+) or ESI(−) method, also coupled to an AQUITY Ultra Performance Liquid Chromatography system (Waters Corporation) using a UV detector monitoring at 254 nm. Purity for all final compounds was >95%, according to the UPLC-MS method using a water/MeCN solvent gradient containing 0.1% formic acid (1%/90%); flow rate: 0.3 mL/min, column: Aquity BEH C18 column (2.1 × 100 mm^2, 1.7 mm). All microwave irradiation reactions were carried out in a Biotage Initiator + microwave apparatus with Biotage sealed microwave vials. Flash chromatography was performed on a Combiflash Rf Automatic Flash Chromatography System with RediSep silica gel columns (12, 24, and 40 g) (Teledyne-Isco, Lincoln, NE) or Reveleris PREP Purification System (Buchi, New Castle, DE). Preparative chromatography was performed on Buchi US15C18HQ-250/212-C18 silica gel columns with the following devices; Reveleris PREP Purification System or PuriFlash 4250 System (Interchim, Montluçon, France). Melting points of the compounds were determined using the SMP50 automated melting point apparatus (Stuart, Staffordshire, ST15 OSA, U.K.). The in vitro ADME and in vivo mouse PK studies were conducted at Syngene International Ltd., Bangalore, India. General synthetic procedures (Methods 1–9) and experimental data for all intermediate compounds can be found in the Supporting Information.

CYP2D6 = CYP2D6 (Homo sapiens, UniProt P10635); experiment: CYP inhibition; assay type: in vitro ADME; settings: read-out: Inhibition of human CYP 2D6
Chain of CYP2D6 (P10635 whole entry): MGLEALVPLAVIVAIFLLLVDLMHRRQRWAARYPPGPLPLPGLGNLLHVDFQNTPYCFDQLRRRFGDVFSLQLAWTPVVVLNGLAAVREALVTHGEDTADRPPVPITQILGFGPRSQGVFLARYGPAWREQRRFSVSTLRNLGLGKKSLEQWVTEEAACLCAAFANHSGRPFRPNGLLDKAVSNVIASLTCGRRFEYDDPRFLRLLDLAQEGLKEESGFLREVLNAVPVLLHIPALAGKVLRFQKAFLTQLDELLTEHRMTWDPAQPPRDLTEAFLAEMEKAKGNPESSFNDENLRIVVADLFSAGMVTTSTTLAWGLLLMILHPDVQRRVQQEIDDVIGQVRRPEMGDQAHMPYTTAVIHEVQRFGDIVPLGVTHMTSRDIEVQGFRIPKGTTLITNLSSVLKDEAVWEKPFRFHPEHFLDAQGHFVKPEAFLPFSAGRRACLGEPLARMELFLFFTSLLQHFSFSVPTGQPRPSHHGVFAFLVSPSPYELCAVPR
Procedure: as §3

CYP3A4 = CYP3A4 (Homo sapiens, UniProt P08684); experiment: CYP inhibition; assay type: in vitro ADME; settings: read-out: Inhibition of human CYP 3A4
Chain of CYP3A4 (P08684 whole entry): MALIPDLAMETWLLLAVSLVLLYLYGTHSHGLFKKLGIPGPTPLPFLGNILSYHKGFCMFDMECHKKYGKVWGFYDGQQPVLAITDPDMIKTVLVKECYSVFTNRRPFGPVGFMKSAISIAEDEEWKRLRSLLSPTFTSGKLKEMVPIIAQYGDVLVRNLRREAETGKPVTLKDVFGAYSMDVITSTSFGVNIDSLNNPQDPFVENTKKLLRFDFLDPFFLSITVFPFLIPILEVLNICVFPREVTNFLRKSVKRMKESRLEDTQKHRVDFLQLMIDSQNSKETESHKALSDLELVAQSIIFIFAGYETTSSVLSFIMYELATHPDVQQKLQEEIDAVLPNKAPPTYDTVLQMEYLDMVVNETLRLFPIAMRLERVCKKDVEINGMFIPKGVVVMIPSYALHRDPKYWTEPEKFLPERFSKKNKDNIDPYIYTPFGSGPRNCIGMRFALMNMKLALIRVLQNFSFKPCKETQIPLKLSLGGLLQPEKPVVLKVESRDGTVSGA
Procedure: as §3

Mouse PK, IV and PO = assay type: in vivo
Procedure: 1000 Mean Mice PK plasma concentrations after
Figure S2. Plasma concentrations vs. time profile of 85 after single dose IV (1 mg/kg) and PO
(10 mg/kg) administrations in male CD-1 mice. The PK study was done at Syngene
International, Ltd., India. […]

[3] = male, CD-1, plasma, 1 mg/kg, Mouse IV PK, 1 mpk
[4] = male, CD-1, plasma, 10 mg/kg, Mouse PO PK, 10 mpk

Structure (SMILES) | inhibition at 10 µM (CAKI-1) [%] | inhibition at 10 µM (COLO 205) [%] | inhibition at 10 µM (EKVX) [%] | inhibition at 10 µM (HOP-62) [%] | inhibition at 10 µM (HS 578T) [%] | inhibition at 10 µM (KM12) [%] | inhibition at 10 µM (LOX-IMVI) [%] | inhibition at 10 µM (M14) [%] | inhibition at 10 µM (MCF7) [%] | inhibition at 10 µM (MDA-MB-231) [%] | inhibition at 10 µM (NCI-H23) [%] | inhibition at 10 µM (NCI-H522) [%] | inhibition at 10 µM (OVCAR-4) [%] | inhibition at 10 µM (SF-295) [%] | inhibition at 10 µM (SNB-19) [%] | inhibition at 10 µM (UO-31) [%] | also measured
Cc1ccccc1COc1ccc(-c2noc(C)c2-c2ccc(Cl)cc2)cc1 [compound 11, 4-(4-Chlorophenyl)-5-methyl-3-(4-((2-methylbenzyl)oxy)phenyl)isoxazole] | 51.3 | 29 | 24.9 | 48.4 | 40.6 | 45.7 | 32 | 67.8 | 68.3 | 79.2 | 26.2 | 74.5 | 17.3 | 50.6 | 44.5 | 25.6 | 
Cc1ccccc1COc1ccc(-c2ccnn2-c2ccc(Cl)cc2)cc1 [compound 85, 1-(4-Chlorophenyl)-5-(4-((2-methylbenzyl)oxy)phenyl)-1H-pyrazole] | 40.3 | 28.8 | 22.9 | 50.7 | 39.1 | 49.3 | 35.7 | 61 | 68.1 | 75.8 | 23.4 | 70.9 | 14.3 | 46.9 | 38 | 25.6 | Metabolic stability, remaining [1]: 55%; logD (logD7.4): 6.64; Solubility [2]: sparingly soluble; plasma protein-bound (plasma protein): 99.9%; inhibition at 10 µM (CYP2C9): 7.3%; inhibition at 10 µM (CYP2D6): 22.2%; inhibition at 10 µM (CYP3A4): 0%; Co (Mouse PK, IV and PO; Mouse IV PK, 1 mpk): 393 ng/mL; AUC (Mouse PK, IV and PO; [3]): 436 ng·h/mL; Vd (Mouse PK, IV and PO; [3]): 13.2 L/kg; half-life (Mouse PK, IV and PO; [3]): 3.85 h; clearance (Mouse PK, IV and PO; male, CD-1, plasma, 1 mg/kg, Mouse IV PK, 1 mpk, read-out: Clp (converted)): 38.8 mL/min/kg; AUC (Mouse PK, IV and PO; [4]): 192 ng·h/mL; Cmax (Mouse PK, IV and PO; [4]): 19.3 ng/mL; bioavailability (Mouse PK, IV and PO; [4]): 5%; half-life (Mouse PK, IV and PO; [4]): 6.64 h
